Species on record: Rattus norvegicus
Assay: DrugMatrix - Regimen: Daily Repeat
Assay type: toxicity, organism-based, Sprague-Dawley
Set-up: regimen Daily Repeat, gender Male, age 6-8 weeks
Conditions: in vivo, po, route oral GAVAGE, vehicle 100 % WATER; for ABSOLUTE BASOPHIL / ABSOLUTE EOSINOPHIL / ABSOLUTE LYMPHOCYTE / ABSOLUTE MONOCYTE / ABSOLUTE SEGMENTED NEUTROPHIL / BASOPHIL / EOSINOPHIL / ERYTHROCYTE COUNT / HEMATOCRIT / HEMOGLOBIN / LEUKOCYTE COUNT / LYMPHOCYTE / MEAN CORPUSCULAR HEMOGLOBIN / MEAN CORPUSCULAR HEMOGLOBIN CONCENTRATION / MEAN CORPUSCULAR VOLUME / MONOCYTE / NEUTROPHIL / NUCLEATED RED BLOOD CELLS / PLATELET COUNT: tissue Blood; for ALANINE AMINOTRANSFERASE / ALBUMIN / ALKALINE PHOSPHATASE / ASPARTATE AMINOTRANSFERASE / BLOOD UREA NITROGEN / CARBON DIOXIDE / CHLORIDE / CHOLESTEROL / CREATINE PHOSPHOKINASE / CREATININE / GLUCOSE / LACTATE DEHYDROGENASE / LIPASE / PHOSPHORUS / POTASSIUM / SODIUM / TOTAL BILIRUBIN / TOTAL PROTEIN / URIC ACID: tissue Plasma
[1] = 30 mg/kg, 120 h, dose level Low, time 5 day
[2] = 2000 mg/kg, 72 h, dose level High, time 3 day
[3] = 2000 mg/kg, 120 h, dose level High, time 5 day

SMILES: CC(C)NCC(O)c1ccc(NS(C)(=O)=O)cc1 (centres undefined) [SOTALOL]
- ABSOLUTE BASOPHIL [1]: 0 CELLS/uL
- ABSOLUTE EOSINOPHIL [1]: 80.67 CELLS/uL
- ABSOLUTE LYMPHOCYTE [1]: 11724 CELLS/uL
- ABSOLUTE MONOCYTE [1]: 98 CELLS/uL
- ABSOLUTE SEGMENTED NEUTROPHIL [1]: 997.33 CELLS/uL
- BASOPHIL [1]: 0%
- EOSINOPHIL [1]: 0.67%
- ERYTHROCYTE COUNT [1]: 5.34 x10E6/uL
- HEMATOCRIT [1]: 34.2%
- HEMOGLOBIN [1]: 13.43 G/DL
- LEUKOCYTE COUNT [1]: 12.9 x10E3/uL
- LYMPHOCYTE [1]: 90.67%
- MEAN CORPUSCULAR HEMOGLOBIN [1]: 25.17 pg
- MEAN CORPUSCULAR HEMOGLOBIN CONCENTRATION [1]: 39.27 G/DL
- MEAN CORPUSCULAR VOLUME [1]: 64 fL
- MONOCYTE [1]: 0.67%
- NEUTROPHIL [1]: 8%
- NUCLEATED RED BLOOD CELLS [1]: 0 /100WBC
- PLATELET COUNT [1]: 1232.33 x10E3/uL
- ALANINE AMINOTRANSFERASE [1]: 48 u/L
- ALBUMIN [1]: 4.27 G/DL
- ALKALINE PHOSPHATASE [1]: 355 u/L
- ASPARTATE AMINOTRANSFERASE [1]: 104.33 u/L
- BLOOD UREA NITROGEN [1]: 17 mg/dL
- CARBON DIOXIDE [1]: 28.33 mmol/L
- CHLORIDE [1]: 105 MEQ/L
- CHOLESTEROL [1]: 70.67 mg/dL
- CREATINE PHOSPHOKINASE [1]: 193.67 u/L
- CREATININE [1]: 0.2 mg/dL
- GLUCOSE [1]: 131.67 mg/dL
- LACTATE DEHYDROGENASE [1]: 156 u/L
- LIPASE [1]: 9.33 u/L
- PHOSPHORUS [1]: 11.6 mg/dL
- POTASSIUM [1]: 6.59 MEQ/L
- SODIUM [1]: 150.53 MEQ/L
- TOTAL BILIRUBIN [1]: 0.2 mg/dL
- TOTAL PROTEIN [1]: 6.13 G/DL
- URIC ACID [1]: 1.17 mg/dL
- ABSOLUTE BASOPHIL [2]: 0 CELLS/uL
- ABSOLUTE EOSINOPHIL [2]: 0 CELLS/uL
- ABSOLUTE LYMPHOCYTE [2]: 13259 CELLS/uL
- ABSOLUTE MONOCYTE [2]: 47.67 CELLS/uL
- ABSOLUTE SEGMENTED NEUTROPHIL [2]: 926.67 CELLS/uL
- BASOPHIL [2]: 0%
- EOSINOPHIL [2]: 0%
- ERYTHROCYTE COUNT [2]: 5.36 x10E6/uL
- HEMATOCRIT [2]: 33.57%
- HEMOGLOBIN [2]: 13.17 G/DL
- LEUKOCYTE COUNT [2]: 14.23 x10E3/uL
- LYMPHOCYTE [2]: 93%
- MEAN CORPUSCULAR HEMOGLOBIN [2]: 24.57 pg
- MEAN CORPUSCULAR HEMOGLOBIN CONCENTRATION [2]: 39.23 G/DL
- MEAN CORPUSCULAR VOLUME [2]: 62.73 fL
- MONOCYTE [2]: 0.33%
- NEUTROPHIL [2]: 6.67%
- NUCLEATED RED BLOOD CELLS [2]: 0 /100WBC
- PLATELET COUNT [2]: 1424.33 x10E3/uL
- ALANINE AMINOTRANSFERASE [2]: 61 u/L
- ALBUMIN [2]: 3.9 G/DL
- ALKALINE PHOSPHATASE [2]: 388.67 u/L
- ASPARTATE AMINOTRANSFERASE [2]: 106.33 u/L
- BLOOD UREA NITROGEN [2]: 14 mg/dL
- CARBON DIOXIDE [2]: 21.33 mmol/L
- CHLORIDE [2]: 104 MEQ/L
- CHOLESTEROL [2]: 57.67 mg/dL
- CREATINE PHOSPHOKINASE [2]: 412.33 u/L
- CREATININE [2]: 0.15 mg/dL
- GLUCOSE [2]: 148 mg/dL
- LACTATE DEHYDROGENASE [2]: 629 u/L
- LIPASE [2]: 10 u/L
- PHOSPHORUS [2]: 11.93 mg/dL
- POTASSIUM [2]: 7.54 MEQ/L
- SODIUM [2]: 142.93 MEQ/L
- TOTAL BILIRUBIN [2]: 0.2 mg/dL
- TOTAL PROTEIN [2]: 5.5 G/DL
- URIC ACID [2]: 1.8 mg/dL
- ABSOLUTE BASOPHIL [3]: 0 CELLS/uL
- ABSOLUTE EOSINOPHIL [3]: 0 CELLS/uL
- ABSOLUTE LYMPHOCYTE [3]: 13770.67 CELLS/uL
- ABSOLUTE MONOCYTE [3]: 100.67 CELLS/uL
- ABSOLUTE SEGMENTED NEUTROPHIL [3]: 1095.33 CELLS/uL
- BASOPHIL [3]: 0%
- EOSINOPHIL [3]: 0%
- ERYTHROCYTE COUNT [3]: 5.87 x10E6/uL
- HEMATOCRIT [3]: 36.53%
- HEMOGLOBIN [3]: 14.37 G/DL
- LEUKOCYTE COUNT [3]: 14.97 x10E3/uL
- LYMPHOCYTE [3]: 92%
- MEAN CORPUSCULAR HEMOGLOBIN [3]: 24.47 pg
- MEAN CORPUSCULAR HEMOGLOBIN CONCENTRATION [3]: 39.33 G/DL
- MEAN CORPUSCULAR VOLUME [3]: 62.27 fL
- MONOCYTE [3]: 0.67%
- NEUTROPHIL [3]: 7.33%
- NUCLEATED RED BLOOD CELLS [3]: 0.33 /100WBC
- PLATELET COUNT [3]: 1192.33 x10E3/uL
- ALANINE AMINOTRANSFERASE [3]: 54.33 u/L
- ALBUMIN [3]: 4.33 G/DL
- ALKALINE PHOSPHATASE [3]: 480.33 u/L
- ASPARTATE AMINOTRANSFERASE [3]: 83 u/L
- BLOOD UREA NITROGEN [3]: 16.33 mg/dL
- CARBON DIOXIDE [3]: 24.33 mmol/L
- CHLORIDE [3]: 106 MEQ/L
- CHOLESTEROL [3]: 77 mg/dL
- CREATINE PHOSPHOKINASE [3]: 259.33 u/L
- CREATININE [3]: 0.22 mg/dL
- GLUCOSE [3]: 159.33 mg/dL
- LACTATE DEHYDROGENASE [3]: 78.67 u/L
- LIPASE [3]: 10.33 u/L
- PHOSPHORUS [3]: 13.13 mg/dL
- POTASSIUM [3]: 6.86 MEQ/L
- SODIUM [3]: 148.2 MEQ/L
- TOTAL BILIRUBIN [3]: 0.2 mg/dL
- TOTAL PROTEIN [3]: 6.13 G/DL
- URIC ACID [3]: 1.73 mg/dL

Reference: ChEMBL document CHEMBL3885881, “DrugMatrix”
